This experiment addresses norepinephrine transporter (NET) (Homo sapiens, UniProt P23975). The experiment can be described thus: fluorescent substrate uptake inhibition in HEK293 cells stably expressing NET. Format: cell-based.

For one compound, IC50 results are on record in publication PMC7572767 (Psychopharmacology, 2020).

Chain of norepinephrine transporter (NET) (P23975 whole entry): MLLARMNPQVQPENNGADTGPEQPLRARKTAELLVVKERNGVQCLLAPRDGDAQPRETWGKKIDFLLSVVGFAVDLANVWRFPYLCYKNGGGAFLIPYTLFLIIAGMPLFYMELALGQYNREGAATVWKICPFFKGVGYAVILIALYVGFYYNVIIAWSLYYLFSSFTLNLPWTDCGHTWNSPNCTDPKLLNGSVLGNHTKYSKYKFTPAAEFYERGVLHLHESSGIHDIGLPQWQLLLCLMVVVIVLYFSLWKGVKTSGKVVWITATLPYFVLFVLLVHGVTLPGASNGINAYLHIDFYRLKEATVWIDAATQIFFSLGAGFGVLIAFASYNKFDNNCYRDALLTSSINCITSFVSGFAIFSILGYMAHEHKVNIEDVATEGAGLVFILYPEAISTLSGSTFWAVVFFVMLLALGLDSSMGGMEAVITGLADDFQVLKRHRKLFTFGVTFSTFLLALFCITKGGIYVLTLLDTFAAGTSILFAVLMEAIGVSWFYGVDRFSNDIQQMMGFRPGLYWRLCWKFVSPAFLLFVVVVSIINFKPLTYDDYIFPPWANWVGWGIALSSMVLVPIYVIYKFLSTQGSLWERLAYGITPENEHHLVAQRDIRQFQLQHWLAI

In general, IC50 refers to the point on the concentration scale where inhibition reaches its midpoint. The low end stands for greater potency, the high end for weaker potency. In the case of `[O-][S@@+](Cc1cncs1)[C@@H](c1ccccc1)c1cccc(Br)c1` [(S, S)-CE-158, 5-(((S)-((S)-(3-bromophenyl)(phenyl)methyl)sulfinyl)methyl)thiazole], inhibition was half-maximal at 12 µM (IC50).
